Assay results taken from PubChem BioAssay AID179 (DTP/NCI, 2004).
Active and inactive are the calls of the source.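 How the source made its calls: active means compounds giving half or more protection of infected cells from virus-caused growth loss, again on retest; inactive means the rest.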

Test system: CEM cells HIV-1 protection, formazan growth assay
Assay: NCI AIDS Antiviral Assay
Conditions: for IC50: measured here: growth of uninfected CEM cells
Outline: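 Five concentrations of each compound were applied to infected and uninfected human CEM cells. Protection from HIV-1 was judged from growth measured with a soluble formazan assay.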

| SMILES | EC50 | IC50 | outcome |
| --- | --- | --- | --- |
| O=C(N=C1C(=O)C2(CCCCC2)C2(N=C(c3ccccc3)OC2=O)C12CCCCC2)c1ccccc1 (stereo unspecified) | > 27.5 µM | 10 µM |  |
| CC(CC(=O)N1C2CC3CCC2(CS1(=O)=O)C3(C)C)[Si](C)(C)C (stereo unspecified) | > 200 µM | 74.1 µM |  |
| O=C(N/N=C/C=C/c1ccccc1)c1ccncc1 | > 200 µM | 33.1 µM |  |
| C=C1CC(CN2CCC(=O)NC2=O)(c2ccccc2)OC1=O (stereo unspecified) | > 200 µM | 1.48 µM |  |
| CCCCCCCCCCNCCSSCc1ccccc1 | > 200 µM | 8.91 µM |  |
| O=C1c2ccccc2S[C@@H](O)[C@@H]2CCCN12 |  |  | inactive |
| Cc1c2ccccc2nc(CSCCO)[n+]1[O-] | > 200 µM | > 200 µM |  |
| Cc1cn(C2CC(N=[N+]=[N-])C(COC(=O)CCCCCCCCCCCN=[N+]=[N-])O2)c(=O)[nH]c1=O (stereo unspecified) | 0.0372 µM | 182 µM |  |
| CCC[CH2][Sn]([CH2]CCC)([O]C(=O)C(N)CSC)[O]C(=O)C(N)CSC (stereo unspecified) | > 18.6 µM | 0.129 µM |  |
| CC1=C(C(=O)Nc2cccc(Cl)c2)C(c2ccc([N+](=O)[O-])cc2)C(C(=O)Nc2cccc(Cl)c2)=C(C)N1 | > 9.77 µM | 7.94 µM |  |
| CC(=O)Oc1ccc(/C=C/C(=O)OCCCOC(=O)/C=C/c2ccc(OC(C)=O)c(OC(C)=O)c2)cc1OC(C)=O | > 100 µM | > 100 µM |  |
| COc1cc2nncc(SCc3ccc(Cl)cc3Cl)c2cc1OC | > 56.2 µM | 52.5 µM |  |
| CS(=O)(=O)OCCCCOS(C)(=O)=O | > 204 µM | > 204 µM |  |
| CC1=C(c2cc(C(=O)Nc3cccc(C(F)(F)F)c3)ncn2)Sc2ccccc2N1 | > 83.2 µM | > 83.2 µM |  |
| C1CC2=C(C1)C1=S(S2)SC2=C1CCC2 |  |  | inactive |
| CCOC1CCN(C(=O)c2ccccc2)O1 (stereo unspecified) | > 200 µM | > 200 µM |  |
| NC(=S)N/N=C(\CC1OC(=O)c2ccccc21)c1ccc(Cl)cc1 (stereo unspecified) | > 83.2 µM | 7.24 µM |  |
| Cc1cc(S(N)(=O)=O)c(SCc2nc(N)nc(N(C)C)n2)cc1Cl | > 200 µM | > 200 µM |  |
| O=C1OC(c2ccc3c(c2)OCO3)Sc2ccccc21 (stereo unspecified) | > 18.2 µM | > 18.2 µM |  |
| C=CCN1CCC(c2cc(C(=O)OCC)[nH]c2-c2cc(C)no2)C1=O (stereo unspecified) | > 200 µM | > 200 µM |  |
| COC(=O)C(/C(=N/N)C(=O)Nc1cc(Cl)c(Cl)cc1Cl)c1nc2ccc(Cl)cc2[nH]c1=O (stereo unspecified) | > 50.1 µM | > 50.1 µM |  |
| COc1cc2c(cc1OC)C(=O)Cc1ccc(OC)c(OC)c1CN(C)CC2 | > 67.6 µM | > 67.6 µM |  |
| c1ccc2nn(C3CCCO3)nc2c1 (stereo unspecified) | > 200 µM | > 200 µM |  |

| SMILES | EC50 | IC50 | outcome |
| --- | --- | --- | --- |
| Cc1nc(-c2ccc(Cl)cc2)cn2c1nc1ccccc12 | 61.7 µM | 191 µM |  |
| O=c1nc2ccccc2c2n1CCN2 | > 95.5 µM | > 95.5 µM |  |
| Cc1ccc(OS(=O)(=O)c2ccccc2[N+](=O)[O-])cc1 |  |  | active |
| CCOC(=O)C1=C(c2ccccc2)NC(c2ccccc2)=C(C(=O)OCC)c2c1c(=O)cc[nH]c2=O | > 53.7 µM | > 53.7 µM |  |
| Cc1c2c(cc3c1OCN(Cc1ccccc1)C3)CN(Cc1ccccc1)CO2 | > 200 µM | 30.9 µM |  |
| O=C(CCC[n+]1ccccc1)CC(O)(C(F)(F)F)C(F)(F)F | > 200 µM | > 200 µM |  |
| O=C(c1ccc(OC(=O)c2ccccc2O)cc1)c1ccc(OC(=O)c2ccccc2O)cc1 |  |  | inactive |
| CCOC(=O)CC1(C(=O)OCC)c2[nH]c3ccccc3c2CCN1Cc1ccccc1 (stereo unspecified) | > 69.2 µM | 17.4 µM |  |
| O=C(/C(=C/c1cccc([N+](=O)[O-])c1)c1ccccc1)c1ccccc1 | > 6.03 µM | 4.07 µM |  |
| C/C(=N/NC(=S)Nc1ccccc1C)c1ccccn1 | > 0.2 µM | 0.0692 µM |  |
| COC(=O)c1ccc(-c2nc(C#N)c(N)o2)cc1 | > 200 µM | > 200 µM |  |
| CCOC(=O)C(N)CSC(=O)NC (stereo unspecified) | > 1020 µM | 87.1 µM |  |
| CC12CP(=O)(c3ccccc3)CC1C2(Cl)Cl (stereo unspecified) |  |  | inactive |
| c1ccc(N=c2snc3scc(-c4ccccc4)n23)cc1 | > 23.4 µM | > 23.4 µM |  |
| O=C(Cc1nc2ccccc2o1)C(=O)Nc1cccc(Cl)c1 |  |  | inactive |
| CCOC(CN(C)C(=O)Nc1cccc2ccccc12)OCC | > 200 µM | 178 µM |  |
| CCN(CC)c1ccc2nc3c4ccccc4c(=O)cc-3n(-c3ccccc3)c2c1 | > 200 µM | 4.57 µM |  |
| O=C1N[C@H]2c3c(Cl)sc(Cl)c3C(=O)[C@H]2O1 | > 20 µM | 0.955 µM |  |
| C/C(=N\N=C(/[Se])N1CC2CCC(CC2)C1)c1ccccn1 | > 53.7 µM | 0.17 µM |  |
| COC(CN(C(=O)c1ccccc1)C1CCC2(SCCS2)c2[nH]c3ccccc3c21)OC (stereo unspecified) | > 200 µM | 14.5 µM |  |
| CC(C)(CN1CCCCC1)C(=O)/C=C/c1ccccc1 | > 141 µM | 69.2 µM |  |
| O=C1OC(=O)C2CC3C(CC12)C1(Cl)C(Cl)=C(Cl)C3(Cl)C1(Cl)Cl (stereo unspecified) | > 200 µM | 6.61 µM |  |
| COC(=O)c1cc(Cc2cc(Br)cc(C(=O)OC)c2O)cc(Cl)c1O | > 100 µM | > 100 µM |  |
